Experiment [1] has as its target T1, E. coli SC (^EcSC, beta ring, DnaN) (Escherichia coli, UniProt P0A988).
T1 construct: inferred from the pET15b vector and the Ni-NTA/imidazole purification; made in house; host or cells: E. coli BL21 (DE3) pLys
The experiment is described as follows: ITC, peptide interaction with E. coli sliding clamp. Conditions: for ΔH (kcal/mole): ITC 30° C. (303.15 K); for ΔH (kcal/mole) / Kd (nM) / ΔG (kcal/mole) / −TΔS (kcal/mole): Table 2A, ^EcSC, Ni = no specific interaction. Format: binding. As to the method: The DnaN protein was expressed from plasmids pET15b, containing the dnaN gene from E. coli, transfected in BL21 (DE3) pLys E. coli strain. Cells were grown in LB at 37° C. to OD 0.5, then induced by IPTG (0.1 mM) at 28° C. overnight. DnaN protein was first enriched on a Ni-NTA column, eluted with an imidazole step (300 mM) and further purified on a Source Q column in buffer containing 20 mM Tris HCl pH 7.5, 0.5 mM EDTA and 10% glycerol, using a gradient from 0 to 0.5 M NaCl. After a final ultracentrifugation (45K, 1 h, 20° C.), soluble proteins were concentrated on a Centricon 30K (Millipore) in the same buffer and stored at 4° C. in 2 M ammonium sulfate.
ITC experiments were performed on a iTC200 (Microcal Malvern Panalytical) or PEAQ-ITC instrument (Microcal Malvern Panalytical). The E. coli SC were washed extensively with ITC buffer (R1 buffer: 10 mM Hepes pH 7.4, 0.15 M NaCl, 3 mM EDTA) on Centrikon 10K at 4° C. before ITC experiments. […] Similarly, E. coli 70S ribosome particles were also washed extensively with ITC 70S buffer (50 mM Tris HCl pH7.5, 30 mM KCl, 70 mM NH4Cl, 7 mM MgCl2, 1 mM DTT, 5% glycerol) on Centrikon 100K at 4° C. before ITC experiments. […] […] Data were corrected from control experiments in which peptides were injected in ITC buffer solution. Each titration was performed at least twice. Analyses of experimental data were performed with AFFINImeter software (https://www.affinimeter.com; S4S, Santiago de Compostela, Spain).

Experiment [2] relates to E. coli 70S ribosome (^Ec70S). The experiment is described as follows: ITC, peptide interaction with E. coli 70S ribosome. The experiment is classed as binding. Conditions: ITC 30° C., Table 2B, ^Ec70S; for Kd: FITC peptides (*), values not well defined, weak interaction; for ΔG / ΔH / −TΔS: Ni = no specific interaction, FITC peptides (*) values not well defined. As to the method:
E. coli MRE600 cells were grown at 37° C. in LB medium until OD^600=1. Cells were centrifuged at 4° C., and pellets were resuspended in buffer A (20 mM Tris HCl pH 7.5; 200 mM NH4Cl; 20 mM MgCl2; 0.1 mM EDTA; 6 mM β-mercaptoethanol) and lysed using a French press at 1.6 kbar. The crude lysate was centrifuged (18 200 rpm) for 30 mn at 4° C. The supernatant was further centrifuged (47000 rpm) at 4° C. for 4 hours and the pellet resuspended in 12.5 ml of buffer A. This solution was laid on a 30% sucrose cushion and centrifuged (34 000 rpm) for 19 hours at 4° C. The ribosome pellet was resuspended in 12.5 ml buffer B (20 mM Tris HCl pH 7.5; 50 mM NH4Cl; 10 mM MgCl2; 0.1 mM EDTA; 6 mM β-mercaptoethanol) and centrifuged again (18 200 rpm) for 1 hour at 4° C. The supernatant was concentrated on Centrikon 100K (Millipore) and washed extensively with ITC 70S buffer. Ribosome concentration was determined by UV absorption at 260 nm. Samples were snap frozen in liquid nitrogen and kept at −80° C.
ITC experiments were performed on a iTC200 (Microcal Malvern Panalytical) or PEAQ-ITC instrument (Microcal Malvern Panalytical). The E. coli SC were washed extensively with ITC buffer (R1 buffer: 10 mM Hepes pH 7.4, 0.15 M NaCl, 3 mM EDTA) on Centrikon 10K at 4° C. before ITC experiments. […] Similarly, E. coli 70S ribosome particles were also washed extensively with ITC 70S buffer (50 mM Tris HCl pH7.5, 30 mM KCl, 70 mM NH4Cl, 7 mM MgCl2, 1 mM DTT, 5% glycerol) on Centrikon 100K at 4° C. before ITC experiments. Peptides (100 to 400 μM) were titrated at 30° C. (303.15 K) in sequential injections (usually 2 μl each) into a SC (20 or 30 μM) or 70S (10 to 15 μM) solution. Data were corrected from control experiments in which peptides were injected in ITC buffer solution. Each titration was performed at least twice. Analyses of experimental data were performed with AFFINImeter software (https://www.affinimeter.com; S4S, Santiago de Compostela, Spain).
The lack of interaction with the ribosome of E. coli has been measured by ITC at 30° C.:
The interactions of these peptides with the E. coli SC (beta ring) and the ribosome were measured by ITC at […]: […]

The next experiment concerns E. coli D22 strain. The experiment is described as follows: microbe, parasite or virus in culture. The experiment is classed as cell-based. The source says:
E. coli strain D22 (F-, IpxC101, proA23, lac-28, tsx-81, trp-30, his-51, tufA1, rpsL173(strR), ampCp-1 was purchased at E. coli Genetic Stock Center (Yale University) and used in the determination of MIC and in the peptide penetration assays. E. coli ATCC23724 cells were used to infect D. melanogaster flies. 70S ribosomes were purified from the E. coli MRE600 strain (Accession AY140951) and BL21 (DE3) pLys strain was used for production of the DnaN protein.
E. coli strains were cultivated on either agar or liquid 1× Mueller Hinton broth unless specified. MIC assays were performed in duplicate in 96-well microtiter plates on the basis of the protocol recommended by the Clinical and Laboratory Standards Institute. Briefly, a mix of 5-6 fresh (less than 36 hours) colonies grown on MH agar plates were inoculated in 3 ml of MH broth and incubated for about 16 h at 37° C. under agitation. 30 μl of this saturated culture were inoculated in 3 ml of fresh medium and allowed to grow until OD600 nm of about 0.6-0.8. Dilution to an OD600 nm of 0.002 was made in MH broth. Within a time laps not exceeding 30 min, 50 μl of this cell suspension was added to 50 μl of MH broth (containing or not the peptide/antibiotic diluted in MH broth) in wells of a 96-well round bottom microwell plate (Greiner; final cell density about 2 to 5×10^5 cfu/ml). Plates were incubated at 37° C. for 18-24 h and final turbidity of each well was measured at 620 nm using a Multiskan FC microplate reader (Thermo Scientific). MIC was defined as the minimal antibiotic concentration that result in no increase of turbidity at that time. Each MIC determination was performed in duplicate and at least in two independent experiments. Plating of 75 μl of the content of the wells of interest on LB Agar plates was used to determine the MBC that is defined by a decrease of at least 99.9% of cell viability as compared to the number of viable cells in the inoculum (about 2 to 5×10^4 cfu).

A further experiment relates to E. coli D22 cells. The settings on record: FIG. 1. As to the method:
FIG. 1 concerns the analysis of peptide penetration into E. coli cells. (a) Fluorescence microscopy of E. coli cells exposed to the three different FITC labeled peptides.
In order to analyse the penetration capacity of the peptides in E. coli D22 cells, FITC-labeled peptides were added to 1 ml of bacterial cultures (OD600=0.8) at a final concentration of 8 μg/ml. The cells were allowed to acquire the peptides for 1 h at 37° C., washed 3 times with 0.5 ml PBS, fixed with 1% formaldehyde solution in PBS for 45 min at room temperature, washed 3 times with 0.5 ml PBS and finally resuspended in 50 μl PBS. Cells were visualized using a Leica DM5500 microscope equipped with a 100× objective and images were processed using Fiji software. One-way ANOVA statistical analysis was performed with the R package.

A further experiment deals with Human PCNA (Homo sapiens, UniProt P12004). The experiment is described as follows: ITC, peptide interaction with human PCNA. Format: binding. Conditions: ITC 30° C., Human PCNA. Here is the method:
The inventors have compared the affinities of the prototypical P7 SC-binding peptide for the bacterial SC and for the eukaryotic functional homolog “Proliferating Cell Nuclear Antigen” PCNA. The same analysis was performed with the DPD1 peptide that contains a well-described specific PCNA Interacting Peptide (PIP) sequence ([…]).

T1 sequence (P0A988 whole entry): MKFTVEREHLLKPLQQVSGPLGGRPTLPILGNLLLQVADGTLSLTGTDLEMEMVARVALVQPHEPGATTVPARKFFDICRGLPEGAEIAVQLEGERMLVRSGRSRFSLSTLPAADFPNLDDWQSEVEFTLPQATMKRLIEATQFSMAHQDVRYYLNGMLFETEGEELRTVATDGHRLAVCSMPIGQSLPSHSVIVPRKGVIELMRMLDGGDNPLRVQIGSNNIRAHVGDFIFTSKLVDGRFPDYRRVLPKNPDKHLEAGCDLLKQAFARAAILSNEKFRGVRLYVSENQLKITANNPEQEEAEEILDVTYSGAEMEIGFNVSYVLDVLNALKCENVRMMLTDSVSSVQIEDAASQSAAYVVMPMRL
Human PCNA, sequence (P12004 whole entry): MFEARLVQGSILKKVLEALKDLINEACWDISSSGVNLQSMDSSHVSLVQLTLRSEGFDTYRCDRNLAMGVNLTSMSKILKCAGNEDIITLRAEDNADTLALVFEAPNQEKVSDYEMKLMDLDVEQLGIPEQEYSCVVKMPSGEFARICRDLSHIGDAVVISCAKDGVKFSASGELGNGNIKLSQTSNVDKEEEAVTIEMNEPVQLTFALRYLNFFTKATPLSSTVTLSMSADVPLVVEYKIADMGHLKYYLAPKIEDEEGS

As for `CC[C@H](C)[C@H](NC(=O)[C@@H]1CCCN1C(=O)[C@H](CCCNC(=N)N)NC(=O)[C@@H]1CCCN1C(=O)[C@@H]1CCCN1C(=O)[C@@H](NC(=O)[C@@H]1CCCN1C(=O)[C@H](CCCNC(=N)N)NC(=O)[C@@H]1CCCN1C(=O)[C@H](CC(C)C)NC(=O)[C@H](Cc1ccc(O)cc1)NC(=O)[C@H](CO)NC(=O)CNC(=O)[C@H](CCCCN)NC(=O)[C@H](CC(=O)O)NC(=O)[C@@H](NC(=O)[C@H](CCCCN)NC(=O)c1ccc2c(c1)C(=O)OC21c2ccc(O)cc2Oc2cc(O)ccc21)C(C)C)[C@@H](C)O)C(=O)N[C@@H](Cc1ccc(O)cc1)C(=O)N[C@@H](CC(N)=O)C(=O)N[C@@H](CCCNC(=N)N)C(=O)N[C@@H](CC(N)=O)C(N)=O` [Peptide P122], in experiment [1] (ITC 30° C.), the “interaction with ^EcSC, in words” value was “do not interact”; the “Kd (nM)” value was “Ni”; the “ΔG (kcal/mole)” value was “Ni”; the “−TΔS (kcal/mole)” value is reported as “Ni”. In addition, the “ΔH (kcal/mole)” value in experiment [1] is reported as “Ni”. Moreover, in experiment [2], the Kd is above 10 µM, the “ΔG” value is -6.91 kcal/mol, the “ΔH” value is -20.1 kcal/mol and the “−TΔS” value amounted to 13.3 kcal/mol. Besides, in the experiment with E. coli D22 strain (D22 strain), the “MIC (μM)” value fell in the range of 181 to 362 µM and the “MIC (μg/ml)” value is 512 to 1024 µg/mL. Moreover, the “fold increase in MIC as compared to Py” value with E. coli D22 strain (E. coli D22) is 64 to 512 fold. In addition, the “penetration into E. coli cells, times more efficiently than P72 or P150” value in the experiment with E. coli D22 cells (average FITC signal of more than 100 bacteria) is on record as “about 3 times”.
With `CC[C@H](C)[C@H](NC(=O)[C@@H]1CCCN1C(=O)[C@H](CCCNC(=N)N)NC(=O)[C@@H]1CCCN1C(=O)[C@@H]1CCCN1C(=O)[C@@H](NC(=O)[C@@H]1CCCN1C(=O)[C@H](CCCNC(=N)N)NC(=O)[C@@H]1CCCN1C(=O)[C@H](CC(C)C)NC(=O)[C@H](Cc1ccc(O)cc1)NC(=O)[C@H](CO)NC(=O)CNC(=O)[C@H](CCCCN)NC(=O)[C@H](CC(=O)O)NC(=O)[C@@H](NC(=O)[C@H](CCCCN)NC(=O)c1ccc2c(c1)C(=O)OC21c2ccc(O)cc2Oc2cc(O)ccc21)C(C)C)[C@@H](C)O)C(=O)N[C@@H](Cc1ccc(O)cc1)C(=O)N[C@@H](CC(N)=O)C(=O)N[C@@H](CCCNC(=N)N)C(=O)N[C@@H](CC(N)=O)C(=O)NCC(=O)N1CCC[C@H]1C(=O)N[C@@H](CCCNC(=N)N)C(=O)N[C@@H](CC1CCCCC1)C(=O)N[C@@H](Cc1ccccc1)C(=O)N[C@@H](CCC(N)=O)C(=O)N[C@@H](CC(C)C)C(=O)N[C@@H](CC(=O)O)C(=O)O` [Peptide P72], in experiment [1] (ITC 30° C.), the “interaction with ^EcSC, in words” value is “do not interact”; the “Kd (nM)” value is recorded as “Ni”; the “ΔG (kcal/mole)” value is on record as “Ni”; the “−TΔS (kcal/mole)” value was “Ni”. Besides, in experiment [1], the “ΔH (kcal/mole)” value is on record as “Ni”. Moreover, in experiment [2], the Kd was above 10 µM, the “ΔG” value is -5.98 kcal/mol, the “ΔH” value is -8.92 kcal/mol and the “−TΔS” value stood at 2.94 kcal/mol. In addition, the “MIC (μM)” value with E. coli D22 strain (D22 strain) is above 269.9 µM. The “entry into E. coli cells, times less efficiently than P122” value in the experiment with E. coli D22 cells (FITC staining after exposure to equal amounts) was “about 3 times”.
For “peptide that contains a well-described specific PCNA Interacting Peptide (PIP) sequence (QKKITDYF) [DPD1]”, the “interaction with E.coli SC, in words” value in experiment [1] (ITC 30° C., specificity comparison with PCNA) is “no interaction”. Besides, at Human PCNA, the Kd was 0.158 µM and the “ΔH” value is -9.94 kcal/mol.

Source of the values: patent US12098217B2, “Fusion peptides as antimicrobial agents” (CENTRE NATIONAL DE LA RECHERCHE SCIENTIFIQUE, priority 2019, dated 2024).
